{"source": "patent US20230265068A1", "about": "“TRANSIENT RECEPTOR POTENTIAL CANONICAL 3 INHIBITORS AND METHODS OF USE THEREOF” (University of Tennessee Research Foundation, priority 2020, published 2023)", "key": {"[1]": {"target": "T1, rTRPV1 (Rattus norvegicus, UniProt O35433)", "T1 construct": "expressed in transfected cells; host or cells: HEK293, transient transfection, pMO vector", "T1 sequence (O35433 whole entry)": "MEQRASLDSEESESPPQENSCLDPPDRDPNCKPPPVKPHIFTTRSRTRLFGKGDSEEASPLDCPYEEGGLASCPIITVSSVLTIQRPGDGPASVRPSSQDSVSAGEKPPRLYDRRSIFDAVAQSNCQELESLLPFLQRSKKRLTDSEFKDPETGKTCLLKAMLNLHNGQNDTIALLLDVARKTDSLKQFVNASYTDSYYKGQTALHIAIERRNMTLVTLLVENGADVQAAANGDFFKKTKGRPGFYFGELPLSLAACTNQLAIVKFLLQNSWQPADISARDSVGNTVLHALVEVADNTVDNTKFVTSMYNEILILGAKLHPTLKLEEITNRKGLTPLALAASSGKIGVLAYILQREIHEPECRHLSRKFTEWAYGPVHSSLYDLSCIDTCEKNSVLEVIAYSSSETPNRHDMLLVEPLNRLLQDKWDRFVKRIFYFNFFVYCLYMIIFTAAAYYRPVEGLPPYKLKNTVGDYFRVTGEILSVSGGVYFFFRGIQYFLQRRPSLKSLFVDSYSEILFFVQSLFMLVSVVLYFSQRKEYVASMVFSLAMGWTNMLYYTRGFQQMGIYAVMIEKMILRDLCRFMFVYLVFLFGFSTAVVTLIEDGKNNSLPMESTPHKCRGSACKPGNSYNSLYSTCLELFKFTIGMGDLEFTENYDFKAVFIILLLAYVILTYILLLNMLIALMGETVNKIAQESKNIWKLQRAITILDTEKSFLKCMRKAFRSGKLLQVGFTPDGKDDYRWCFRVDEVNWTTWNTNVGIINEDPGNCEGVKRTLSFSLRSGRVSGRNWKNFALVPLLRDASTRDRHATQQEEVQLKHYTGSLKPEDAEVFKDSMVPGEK", "assay": "whole-cell patch clamp selectivity, HEK 293 cells overexpressing rTRPV1", "type": "cell-based", "settings": "HEK293, with agonist, solutions without Ca2+, read-out: % of the current of rTRPV1 inhibited", "protocol": "(§1) Human embryonic kidney 293 (HEK293; catalog number CRL-1573) cells were cultured in Dulbecco's modified Eagle's medium (Invitrogen) supplemented with 10% fetal bovine serum and 1% penicillin-streptomycin at 37° C. and 5% CO2. Constructs cloned in pMO (a pcDNA3-modified vector) were co-transfected with GFP-pMO, using Lipofectamine 2000 (Invitrogen) according to the manufacturer's instructions. Macroscopic currents in the whole-cell patch clamp configuration were recorded 18-24 h post-transfection. The extracellular solution contained 140 mM NaCl, 6 mM KCl, 2 mM MgCl2, 10 mM HEPES, and 10 mM glucose (pH 7.4). Pipettes were made of borosilicate glass (outer diameter, 1.5 mm; inner diameter, 1.10 mm; Sutter Instruments) and fire-polished with a resistance between 2.8 and 4.0 megaohms when filled with an intracellular solution that contained 140 mM CsCl, 5 mM EGTA, and 10 mM HEPES, pH 7.2. Currents were recorded with a Multiclamp 700B amplifier (Molecular Devices) using a 1-s ramp from −100 to 100 mV. […] Data were acquired with a sampling rate of 20 kHz, low-pass filtered (10 kHz), and analyzed offline using Clampfit v10.4.2.0 (Molecular Devices). […]"}, "[2]": {"target": "T2, mmTRPC6 (Mus musculus, UniProt Q61143)", "T2 construct": "expressed in transfected cells; host or cells: HEK293, transient transfection, pMO vector", "T2 sequence (Q61143 1-930)": "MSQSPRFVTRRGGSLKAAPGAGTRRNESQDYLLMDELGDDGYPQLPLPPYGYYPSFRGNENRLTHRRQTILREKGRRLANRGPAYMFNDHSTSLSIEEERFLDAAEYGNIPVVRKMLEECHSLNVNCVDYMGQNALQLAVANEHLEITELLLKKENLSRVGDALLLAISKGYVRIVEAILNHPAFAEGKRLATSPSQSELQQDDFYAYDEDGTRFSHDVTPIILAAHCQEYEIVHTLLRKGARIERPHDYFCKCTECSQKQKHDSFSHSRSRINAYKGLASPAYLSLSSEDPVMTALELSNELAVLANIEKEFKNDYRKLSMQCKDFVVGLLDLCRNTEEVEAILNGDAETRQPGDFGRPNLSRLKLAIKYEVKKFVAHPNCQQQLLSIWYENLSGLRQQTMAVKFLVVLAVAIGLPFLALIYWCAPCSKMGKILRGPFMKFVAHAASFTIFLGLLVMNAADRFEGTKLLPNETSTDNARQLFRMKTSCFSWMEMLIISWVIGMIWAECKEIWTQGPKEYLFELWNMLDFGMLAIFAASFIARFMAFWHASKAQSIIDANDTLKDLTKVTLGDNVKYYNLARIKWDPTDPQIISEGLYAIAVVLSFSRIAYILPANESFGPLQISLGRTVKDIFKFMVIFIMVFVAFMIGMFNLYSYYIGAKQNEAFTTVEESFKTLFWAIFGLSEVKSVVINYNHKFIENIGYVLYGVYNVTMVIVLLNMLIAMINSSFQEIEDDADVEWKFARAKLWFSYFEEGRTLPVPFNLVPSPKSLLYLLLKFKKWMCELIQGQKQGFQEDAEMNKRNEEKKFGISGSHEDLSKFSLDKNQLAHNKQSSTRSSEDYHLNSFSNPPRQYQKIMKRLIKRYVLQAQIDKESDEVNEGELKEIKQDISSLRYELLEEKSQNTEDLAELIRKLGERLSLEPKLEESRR", "assay": "whole-cell patch clamp selectivity, HEK 293 cells overexpressing mmTRPC6", "type": "cell-based", "settings": "HEK293, with agonist, solutions without Ca2+, read-out: % of the current of hTRPC6 inhibited", "protocol": "as §1"}, "[3]": {"assay": "metabolic stability in human liver microsomes", "type": "in vitro ADME", "settings": "human, microsomes", "protocol": "The metabolic stability of compound 22 was tested prior to the next phase of in vivo study. […] The maximum tolerated dose (MTD) study was subsequently performed to investigate its in vivo toxicity (FIGS. 4A and 4B). The second major limitation of Pyr3 is its toxicity due to its alkylating tail moiety. While replacing only the fast-metabolizing head ester group in Pyr3 with a stable amide (compound 79) improved metabolic stability, a single IP injection of compound 79 at 200 mg/kg killed all mice within 24 h."}, "[4]": {"system": "hippocampal neurons", "assay": "neuroprotection against Aβ-containing conditioned medium (7PA2) in primary hippocampal neurons", "type": "cell-based, rat", "settings": "14 DIV neurons, 7PA2 medium, 16 hours, different concentrations", "protocol": "To visualize dendritic spines, 14 DIV hippocampal neurons at low density (5,000 cells per 35 mm dish) were exposed to 7PA2 conditioned media (CM), which contains naturally secreted Aβ, or CHO control media or for 16 h, with or without cotreatment with the two inhibitor compounds, followed by immunocytochemistry with MAP2 and DAPI counterstaining.\nTo explore the potential biological effects of compound 22 in a TRPC3 related disease model, its neuroprotective ability in primary cultured neurons (14 DIV prepared from E17 rats as described) was evaluated. The effects on neuron dendritic morphology were measured by imaging. Mature hippocampal neurons (DIV=14) were treated with CHO control medium, or naturally secreted Aβ-containing conditioned medium (7PA2), or in combination with compound 22 or Pyr3 at different concentrations, for 16 hours, followed by immunocytochemistry using an antibody against MAP2 and DAPI (data not shown). […] Hippocampal neurons (DIV=14) were treated with compound 22 or Pyr3 alone at different concentrations, followed by immunocytochemistry staining with MAP2 and DAPI (data not shown)."}}, "data": [{"compound": "CCNC(=O)c1cnn(-c2ccc(-n3ccc(Cl)c(Cl)c3=O)cc2)c1C(F)(F)F", "note": "[Compound 22]", "values": [{"measurement": "inhibition at 10 µM", "setting": "[1]", "value": "< 5", "unit": "%"}, {"measurement": "inhibition at 10 µM", "setting": "[2]", "value": "~39", "unit": "%"}, {"measurement": "half-life", "setting": "[3]", "value": "> 4", "unit": "h"}, {"measurement": "protection against Aβ-induced damage to dendrites (MAP2/DAPI)", "setting": "[4]", "value": "protect against Aβ-induced damage to dendrites"}]}]}
